Measured values taken from US5484780A, “Angiotensin II antagonists” (Eli Lilly and Company, priority 1994, dated 1996).
“And” between values parts separate entries of the source, which are not always exact repeats. Identical values can stand only once.

Target: T1, angiotensin-induced vasoconstriction (rabbit aorta) (Oryctolagus cuniculus, UniProt P34976)
T1 construct: The thoracic aortas were removed and cleaned of excess fat and connective tissue; from tissue; host or cells: thoracic aorta rings of New Zealand white rabbits (animals from Hazelton)
T1 sequence (P34976 1-359): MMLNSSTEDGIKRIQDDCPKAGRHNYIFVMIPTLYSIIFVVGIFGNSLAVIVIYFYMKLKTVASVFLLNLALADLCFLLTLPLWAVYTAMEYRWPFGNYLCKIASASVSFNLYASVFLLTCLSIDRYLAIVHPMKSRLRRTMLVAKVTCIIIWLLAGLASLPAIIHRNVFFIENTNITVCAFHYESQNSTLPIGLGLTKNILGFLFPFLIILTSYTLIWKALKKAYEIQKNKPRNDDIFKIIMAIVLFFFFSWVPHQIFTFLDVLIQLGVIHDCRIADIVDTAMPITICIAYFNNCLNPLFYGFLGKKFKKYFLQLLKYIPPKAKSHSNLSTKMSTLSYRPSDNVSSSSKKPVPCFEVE
Assay: Rabbit Aorta Test System: antagonism of angiotensin II contraction of aortic rings
Parameters: species or system New Zealand white rabbits
Conditions: contraction to AII 10^-10 to 10^-7 M, 30 minutes incubation with compound; pA2 = -log KB
Protocol: As previously discussed, the compounds of Formula I are potent effective antagonists of angiotensin II. The ability of representative compounds of Formula I to block angiotensin II receptor binding was determined using the adrenal glomerulosa assay. The ability to antagonize angiotensin-induced vasoconstriction was evaluated in the rabbit aorta test system.
New Zealand white rabbits (Hazelton, 2-3 kg) were sacrificed by cervical dislocation. The thoracic aortas were removed and cleaned of excess fat and connective tissue. Rings of tissue (3 mm wide) were mounted in 10 ml tissue baths between 2 L-shaped stainless steel hooks. The lower hook was attached to a stationary rod. The upper hook was attached to a force displacement transducer (Grass model FT.03). The bath chambers were maintained at 37° C., aerated with 95% 02 /5% C02, and contained physiological solution of the following composition (mM): NaCl, 117; glucose, 5.6; NaH2 PO4, 1.0; MgS04, 0.7; KCl, 5.2; CaCl2, 1.8; NaHCO3, 26; and phentolamine HCl, 0.003.
Rings were equilibrated for 1 hour with 2 g of tension. During the equilibration period, the tissues were washed by overflow every 15 minutes. Rings were then exposed to 10^-8 M angiotensin II (AII) and were allowed to contract until a steady state was reached. Tissues were then washed every 15 minutes for 1 hour. This was repeated every hour until the AII response stabilized. A cumulative concentration response curve to AII (10^-10 to 10^-7 M) was then obtained. At the conclusion of the concentration response curve, tissues were washed every 2 minutes until baseline tension was reached, then every 15 minutes for 30 minutes. Compounds were added in a volume of 10 μl DMSO and allowed to incubate for 30 minutes before repeating the concentration response curve to AII. Contractions to AII were expressed as a percent of the maximum contraction obtained in the control curve (the first AII concentration response curve). EC50 's (concentration that contracted the tissues to 1/2 the control maximum) for each curve were calculated using a 4 parameter logistics model (NonLin, SAS Institute). Potency data for each compound tested are expressed as the pA2 (defined as-log KB, where KB =[molar concentration of antagonist]/[(EC50 AII with antagonist/EC50 AII without antagonist)-1]).

Row | SMILES | Kb | Rabbit Aorta (pA2)
1 | CCCCC(C(=O)N1C[C@@H](Oc2ccccc2)C[C@H]1C(=O)O)n1cnc(NC(=O)c2ccccc2S(=O)(=O)O)c1 (single isomer, unassigned) [Example 14, 1-[1-oxo-2-[4-(2-sulfobenzoyl)amino-1H-imidazol-1-yl]hexyl]-4-cis-phenoxy-L-proline] | 31.6 nM and 126 nM | 
2 | CCCCCCC(C(=O)N1C[C@@H](Oc2ccccc2)C[C@H]1C(=O)O)n1cnc(NC(=O)c2cccc(O)c2C(=O)O)c1 (single isomer, unassigned) [Example 20, 1-[1-oxo-2-[4-(2-carboxy-3-hydroxybenzoyl)amino-1H-imidazol-1-yl]octyl]-4-cis-phenoxy-L-Proline] | 3.16 nM | 
3 | CCCCCCC(C(=O)N1CCC[C@H]1C(=O)O)n1cnc(NC(=O)c2ccccc2S(=O)(=O)O)c1 (single isomer, unassigned) [Example 21, 1-[1-Oxo-2-[4-(2-sulfobenzoyl)amino-1H-imidazol-1-yl]octyl]-L-proline] | 63.1 nM and 501 nM | 
4 | CCCCCCC(C(=O)N1CCNC1=S)n1cnc(NC(=O)c2ccccc2S(=O)(=O)O)c1 (centres unmarked) [Example 6, 2-[[[1-[1-[(2-thioxo-1-imidazolidinyl)carbonyl]-heptyl]-1H-imidazol-4-yl]amino]carbonyl]benzenesulfonic acid] |  | 6.3
5 | CCCCCCC(C(=O)N1CCC[C@@H]1C(=O)O)n1cnc(NC(=O)c2ccccc2S(=O)(=O)O)c1 (some centres unmarked) [Example 11] | 200 nM and 251 nM | 
6 | CCCCCC(C(=O)N1C[C@@H](Oc2ccccc2)C[C@H]1C(=O)O)n1cnc(NC(=O)c2ccccc2S(=O)(=O)O)c1 (stereo partly drawn) [Example 13, 1-[1-oxo-2-[4-(2-sulfobenzoyl)amino-1H-imidazol-1-yl]heptyl]-4-cis-phenoxy-L-proline] | 63.1 nM and 126 nM | 
7 | O=C(Nc1cn(C(CCCCC(F)(F)F)C(=O)N2C[C@@H](Oc3ccccc3)C[C@H]2C(=O)O)cn1)c1ccccc1S(=O)(=O)O (stereo partly drawn) [Example 16, 1-[1-Oxo-2-[4-(2-sulfobenzoyl)amino-1H-imidazol-1-yl]-7,7,7-trifluoroheptyl]-4-cis-phenoxy-L-proline] | 50.1 nM | 
8 | CCCCCCC(C(=O)N1C[C@@H](Oc2cccnc2)C[C@H]1C(=O)O)n1cnc(NC(=O)c2ccccc2S(=O)(=O)O)c1 (stereo partly drawn) [Example 17, 1-[1-Oxo-2-[4-(2-sulfobenzoyl)amino-1H-imidazol-1-yl]octyl]4-cis-(3-pyridyloxy)-L-proline] | 15.8 nM | 
9 | CCCCCC[C@H](C(=O)N1C[C@@H](Oc2ccc(C(C)(C)C)cc2)C[C@H]1C(=O)O)n1cnc(NC(=O)c2ccccc2S(=O)(=O)O)c1 [Example 25] | 126 nM | 
10 | CCCCCC[C@H](C(=O)N1C[C@@H](Oc2ccc(C3CCCC3)cc2)C[C@H]1C(=O)O)n1cnc(NC(=O)c2ccccc2S(=O)(=O)O)c1 [Example 26] | 2.51 nM | 
11 | CCCCCC[C@H](C(=O)N1C[C@@H](Oc2ccc(-n3ccnc3)cc2)C[C@H]1C(=O)O)n1cnc(NC(=O)c2ccccc2S(=O)(=O)O)c1 [Example 38] | 1.26 nM | 
12 | CCCCCC[C@H](C(=O)N1C[C@@H](Oc2ccc(S(=O)(=O)N3CCCC3)cc2)C[C@H]1C(=O)O)n1cnc(NC(=O)c2ccccc2S(=O)(=O)O)c1 [Example 39] | 1 nM | 
13 | CCCCCC[C@H](C(=O)N1C[C@@H](Oc2ccc(S(=O)(=O)NC)cc2)C[C@H]1C(=O)O)n1cnc(NC(=O)c2ccccc2S(=O)(=O)O)c1 [Example 40] | 0.501 nM | 
14 | CCCCCC[C@H](C(=O)N1C[C@@H](Oc2ccc(OP(=O)(O)O)cc2)C[C@H]1C(=O)O)n1cnc(NC(=O)c2ccccc2S(=O)(=O)O)c1 [Example 43] | 0.794 nM | 
15 | CCCCCC[C@H](C(=O)N1C[C@@H](Oc2ccc(-n3cncn3)cc2)C[C@H]1C(=O)O)n1cnc(NC(=O)c2ccccc2S(=O)(=O)O)c1 [Example 45] | 0.251 nM | 
16 | CCCCCC[C@H](C(=O)N1C[C@@H](Oc2ccc(CC(=O)N(C)CC(=O)O)cc2)C[C@H]1C(=O)O)n1cnc(NC(=O)c2ccccc2S(=O)(=O)O)c1 [Example 46] | 2 nM | 
17 | CCCCCC[C@H](C(=O)N1C[C@@H](Oc2ccc(CC(=O)N3CCC[C@H]3C(=O)O)cc2)C[C@H]1C(=O)O)n1cnc(NC(=O)c2ccccc2S(=O)(=O)O)c1 [Example 47] | 1 nM | 
18 | CCCCCC[C@H](C(=O)N1C[C@@H](Oc2ccc(OC(C)C)cc2)C[C@H]1C(=O)O)n1cnc(NC(=O)c2ccccc2S(=O)(=O)O)c1 [Example 49] | 2.51 nM | 

Second part, the compound after the results:

Row | Kb | Rabbit Aorta (pA2) | SMILES
19 | 0.2 nM |  | CCCCCCC(C(=O)N1C[C@@H](Oc2ccc(OC)cc2)C[C@H]1C(=O)O)n1cnc(NC(=O)c2ccccc2S(=O)(=O)O)c1 (single isomer, unassigned) [Example 18]
20 | 1.26 nM |  | CCCCCCC(C(=O)N1C[C@@H](Oc2ccc(O)cc2)C[C@H]1C(=O)O)n1cnc(NC(=O)c2ccccc2S(=O)(=O)O)c1 (single isomer, unassigned) [Example 19]
21 | 0.398 nM |  | CCCCCC[C@H](C(=O)N1C[C@@H](Oc2ccc(C)cc2)C[C@H]1C(=O)O)n1cnc(NC(=O)c2ccccc2S(=O)(=O)O)c1 [Example 22]
22 | 1.58 nM |  | CCCCCC[C@H](C(=O)N1C[C@@H](Oc2ccc(CC)cc2)C[C@H]1C(=O)O)n1cnc(NC(=O)c2ccccc2S(=O)(=O)O)c1 [Example 23]
23 | 25.1 nM |  | CCCCCC[C@H](C(=O)N1C[C@@H](Oc2ccc(C(C)C)cc2)C[C@H]1C(=O)O)n1cnc(NC(=O)c2ccccc2S(=O)(=O)O)c1 [Example 24]
24 | 10 nM |  | CCCCCC[C@H](C(=O)N1C[C@@H](Oc2ccc(-c3ccccc3)cc2)C[C@H]1C(=O)O)n1cnc(NC(=O)c2ccccc2S(=O)(=O)O)c1 [Example 27]
25 |  | 8.7 | CCCCCC[C@H](C(=O)N1C[C@@H](Oc2ccc(F)cc2)C[C@H]1C(=O)O)n1cnc(NC(=O)c2ccccc2S(=O)(=O)O)c1 [Example 28]
26 |  | 7.5 | CCCCCC[C@H](C(=O)N1C[C@@H](Oc2ccc(C(F)(F)F)cc2)C[C@H]1C(=O)O)n1cnc(NC(=O)c2ccccc2S(=O)(=O)O)c1 [Example 29]
27 | 0.631 nM |  | CCCCCC[C@H](C(=O)N1C[C@@H](Oc2ccc(SC)cc2)C[C@H]1C(=O)O)n1cnc(NC(=O)c2ccccc2S(=O)(=O)O)c1 [Example 30]
28 |  | 8.9 | CCCCCC[C@H](C(=O)N1C[C@@H](Oc2ccc([S+](C)[O-])cc2)C[C@H]1C(=O)O)n1cnc(NC(=O)c2ccccc2S(=O)(=O)O)c1 (some centres unmarked) [Example 31]
29 | 1.26 nM |  | CCCCCC[C@H](C(=O)N1C[C@@H](Oc2ccc(S(C)(=O)=O)cc2)C[C@H]1C(=O)O)n1cnc(NC(=O)c2ccccc2S(=O)(=O)O)c1 [Example 32]
30 | 1 nM |  | CCCCCC[C@H](C(=O)N1C[C@@H](Oc2ccc(C(=O)O)cc2)C[C@H]1C(=O)O)n1cnc(NC(=O)c2ccccc2S(=O)(=O)O)c1 [Example 33]
31 | 3.16 nM |  | CCCCCC[C@H](C(=O)N1C[C@@H](Oc2ccc(C(N)=O)cc2)C[C@H]1C(=O)O)n1cnc(NC(=O)c2ccccc2S(=O)(=O)O)c1 [Example 34]
32 | 2 nM |  | CCCCCC[C@H](C(=O)N1C[C@@H](Oc2ccc(CO)cc2)C[C@H]1C(=O)O)n1cnc(NC(=O)c2ccccc2S(=O)(=O)O)c1 [Example 35]
33 | 0.398 nM |  | CCCCCC[C@H](C(=O)N1C[C@@H](Oc2ccc(CC(=O)O)cc2)C[C@H]1C(=O)O)n1cnc(NC(=O)c2ccccc2S(=O)(=O)O)c1 [Example 36]
34 | 0.398 nM |  | CCCCCC[C@H](C(=O)N1C[C@@H](Oc2ccc(CCC(=O)O)cc2)C[C@H]1C(=O)O)n1cnc(NC(=O)c2ccccc2S(=O)(=O)O)c1 [Example 37]
35 | 0.158 nM |  | CCCCCC[C@H](C(=O)N1C[C@@H](Oc2ccc(-c3nc(C(=O)O)co3)cc2)C[C@H]1C(=O)O)n1cnc(NC(=O)c2ccccc2S(=O)(=O)O)c1 [Example 41]
36 | 1.26 nM |  | CCCCCC[C@H](C(=O)N1C[C@@H](Oc2ccc(CCP(=O)(O)O)cc2)C[C@H]1C(=O)O)n1cnc(NC(=O)c2ccccc2S(=O)(=O)O)c1 [Example 42]
37 | 5.01 nM |  | CCCCCC[C@H](C(=O)N1C[C@@H](Oc2ccc(P(=O)(O)O)cc2)C[C@H]1C(=O)O)n1cnc(NC(=O)c2ccccc2S(=O)(=O)O)c1 [Example 44]
38 | 0.631 nM |  | CCCCCC[C@H](C(=O)N1C[C@@H](Oc2ccc(OCC)cc2)C[C@H]1C(=O)O)n1cnc(NC(=O)c2ccccc2S(=O)(=O)O)c1 [Example 48]
